Active and inactive are the calls of the source. No cut-off for these calls is given here.

Test [1] is filed under the species Oryctolagus cuniculus. Briefly: Inhibition of increase in intestine potential difference caused by diarrhea-inducing secretagogues in rabbits using 'Using chamber'; Inactive. Type of test: functional, organism-based.
The species named for test [2] is Rattus norvegicus. The test can be described thus: Inhibition of cholera toxin induced intestinal fluid secretion in rat; I= Inactive. Type of test: functional, organism-based.
Test [3] is filed under the species Rattus norvegicus. Briefly: Inhibition of cholera toxin induced intestinal fluid secretion in rat. It is filed as functional. Particulars: read-out: ID50 (the source's name).
The species entered for test [4] is Oryctolagus cuniculus. Briefly: Inhibition of increase in intestine potential difference caused by diarrhea-inducing secretagogues in rabbits using 'Using chamber'; Active at 1.0 x 10e-6 M. It is filed as functional, organism-based.
For test [5], the species on record is Oryctolagus cuniculus. The test can be described thus: Inhibition of increase in intestine potential difference caused by diarrhea-inducing secretagogues in rabbits using ''Using chamber''; Active at 1.1 x 10e-5 M. It is filed as functional, organism-based.
For test [6], the species on record is Oryctolagus cuniculus. Briefly: Inhibition of increase in intestine potential difference caused by diarrhea-inducing secretagogues in rabbits using 'Using chamber'; Active 1.0x 10e-6 M. Type of test: functional, organism-based.

Take `N=C(N)N/N=C/c1ccc2ccccc2c1`: in the test filed under Oryctolagus cuniculus [1], the inhibition entry is “inactive”. Moreover, the ID50 result in the test filed under Rattus norvegicus [2] is “inactive”.
For `N=C(N)N/N=C/c1cccc2ccccc12`, the inhibition entry in the test filed under Oryctolagus cuniculus [1] is “inactive”. Also, the ED50 in the test listed under Rattus norvegicus [3] was found to be 34.6 mg/kg.
In the same order, the values of `Cc1cc(C)c(/C=N/N=C(N)N)c(C)c1` are “inactive” and 16.6 mg/kg.
With `Cc1ccc(N)cc1/C=N/N=C(N)N`, in the test filed under Rattus norvegicus [2], the ID50 entry is “inactive”.
In the case of `Cc1cccc(C)c1/C=N/NC1=NCCN1`, the ED50 in the test listed under Rattus norvegicus [3] worked out at 7.9 mg/kg.
Turning to `Cc1ccccc1/C=N/N=C(N)N`, the inhibition entry in the test filed under Oryctolagus cuniculus [1] is “inactive”. For the same molecule, the ID50 result in the test listed under Rattus norvegicus [2] is “inactive”.
For `N=C(N)N/N=C1\CCc2ccccc21`, the ID50 entry in the test filed under Rattus norvegicus [2] is “inactive”.
Consider `Cc1cc(O)cc(C)c1/C=N/N=C(N)N`, for which, in the test listed under Oryctolagus cuniculus [1], the inhibition result is “inactive”. Besides, in the test filed under Rattus norvegicus [3], the ED50 was determined as 3.4 mg/kg.
In the same order, the values of `N=C(N)N/N=C1\CCCc2ccccc21` are “inactive” and 30.6 mg/kg.
In the same order, the values of `COc1cc(C)c(/C=N/N=C(N)N)c(C)c1` are “inactive” and 27 mg/kg.
For the molecule `CC1CCc2ccccc2/C1=N/N=C(N)N` (stereo unspecified), the ID50 entry in the test filed under Rattus norvegicus [2] is “inactive”.
On the same count and under the same terms, as for `Cc1c(N)cc(N)c(C)c1/C=N/N=C(N)N`, the entry is “inactive”.
Take `Cc1c(N)cccc1/C=N/N=C(N)N`: the inhibition result in the test filed under Oryctolagus cuniculus [1] is “inactive”. Also, the ID50 result in the test listed under Rattus norvegicus [2] is “inactive”.
Regarding `COc1ccc2c(c1)/C(=N/N=C(N)N)CCC2`, the ID50 entry in the test listed under Rattus norvegicus [2] is “inactive”.
Take `Cc1cc(/C=N/N=C(N)N)cc(C)c1O`: the inhibition result in the test listed under Oryctolagus cuniculus [1] is “inactive”. For the same molecule, the ID50 entry in the test filed under Rattus norvegicus [2] is “inactive”.
Turning to `N=C(N)N/N=C/c1ccnc2ccccc12`, the inhibition result in the test filed under Oryctolagus cuniculus [1] is “inactive”. For the same molecule, the ID50 entry in the test listed under Rattus norvegicus [2] was “inactive”.
Regarding `Cc1cccc(C)c1/C=N/N=C(N)N`, the inhibition result in the test filed under Oryctolagus cuniculus [4] is “Active at 1.0 x 10e-6 M”. Also, the ED50 in the test filed under Rattus norvegicus [3] came out at 1.6 mg/kg.
For `COc1cccc2c1CCC/C2=N\N=C(N)N`, in the test listed under Rattus norvegicus [2], the ID50 entry is “inactive”.
Take `C/C(=N\N=C(N)N)c1c(C)cccc1C`: the inhibition entry in the test listed under Oryctolagus cuniculus [5] was “Active at 1.1 x 10e-5 M”. Besides, in the test filed under Oryctolagus cuniculus [1], the inhibition result is “inactive”. Also, the ED50 in the test listed under Rattus norvegicus [3] turned out to be 13.3 mg/kg. In addition, the ID50 entry in the test listed under Rattus norvegicus [2] is “inactive”.
Regarding `COc1ccc2c(c1)CCC/C2=N\N=C(N)N`, the ED50 in the test listed under Rattus norvegicus [3] is 20.5 mg/kg.
As to `N=C(N)N/N=C/c1c(Cl)cccc1Cl` [GUANABENZ], the inhibition entry in the test filed under Oryctolagus cuniculus [6] is “Active”. Also, the ED50 in the test filed under Rattus norvegicus [3] was 1.3 mg/kg.

(Values after ChEMBL document CHEMBL1123941, “Potential antisecretory antidiarrheals. 1. Alpha 2-adrenergic aromatic aminoguanidine hydrazones” (1988).)
